In patent publication US20230013669A1, “Antibacterial Treatment Using a Cannabinoid and an Active Agent” (priority 2019, published 2023):
Values joined by “and” are separate entries in the source; they are usually repeats but may differ in a detail not shown here. Equal entries are not always repeated. Where two headings read alike, the source gives them in different places.

Test system: Acinetobacter baumannii ATCC 19606 (GN_034)
Assay: Synergy of cannabidiol with cell-wall disrupting agent (CBD MIC in combination, FICI)
Assay type: cell-based
Details: for MIC: Acinetobacter baumannii
Procedure: The compounds were stored short term at 4° C.
Analysis was performed using Microsoft Excel.

## C=C(C)C1CCC(C)=CC1c1c(O)cc(CCCCC)cc1O (centres unmarked) [Cannabidiol, 2-[3-methyl-6-(1-methylethenyl)-2-cyclohexen-1-yl]-5-pentyl-1,3-benzenediol]
Acinetobacter baumannii ATCC 19606, CBD with FADDI-287, MIC table (Table 95)
  FICI range: 0.25-8
Acinetobacter baumannii ATCC 19606, CBD with FADDI-287, Synergy table (Table 97)
  FICI range: 0.25-8^
Acinetobacter baumannii ATCC 19606, CBD with MCC_8980, MIC table (Table 99)
  FICI range: 0.06-1.02
Acinetobacter baumannii ATCC 19606, CBD with MCC_8980, Synergy table (Table 101), listed as CBD
  FICI range: 0.06-0.25 and 0.06-0.26
Acinetobacter baumannii ATCC 19606, CBD with Spero SPR206, Synergy table, listed as CBD
  FICI range: 0.25-0.5 and 0.25
Acinetobacter baumannii ATCC 19606, MCC_8980 at 8 μg/mL, listed as CBD
  CBD MIC with MCC_8980: 4 mg/L
Acinetobacter baumannii ATCC 19606, MCC_8980 at 16 μg/mL, listed as CBD
  CBD MIC with MCC_8980: 2 mg/L
Acinetobacter baumannii ATCC 19606, cannabidiol with FADDI-287 at 0.25 μg/mL, calculated using MIC of 256 μg/mL for cannabidiol
  FICI: 0.5001
Acinetobacter baumannii ATCC 19606, cannabidiol with FADDI-287 at 0.5 μg/mL, calculated using MIC of 256 μg/mL for cannabidiol
  FICI: 1
Acinetobacter baumannii ATCC 19606, cannabidiol with FADDI-287 at 1 μg/mL, calculated using MIC of 256 μg/mL for cannabidiol
  FICI: 2
Acinetobacter baumannii ATCC 19606, cannabidiol with FADDI-287 at 2 μg/mL, calculated using MIC of 256 μg/mL for cannabidiol
  FICI: 4
Acinetobacter baumannii ATCC 19606, cannabidiol with FADDI-287 at 4 μg/mL, calculated using MIC of 256 μg/mL for cannabidiol
  FICI: 8
Acinetobacter baumannii ATCC 19606, cannabidiol with MCC_8980 at 1 μg/mL, calculated using MIC of 256 μg/mL for cannabidiol
  FICI: 1.016
Acinetobacter baumannii ATCC 19606, cannabidiol with MCC_8980 at 2 μg/mL, calculated using MIC of 256 μg/mL for cannabidiol
  FICI: 0.0625
Acinetobacter baumannii ATCC 19606, cannabidiol with MCC_8980 at 4 μg/mL, calculated using MIC of 256 μg/mL for cannabidiol
  FICI: 0.09375
Acinetobacter baumannii ATCC 19606, cannabidiol with MCC_8980 at 8 μg/mL, calculated using MIC of 256 μg/mL for cannabidiol
  FICI: 0.1328 and 0.1406
Acinetobacter baumannii ATCC 19606, cannabidiol with MCC_8980 at 16 μg/mL, calculated using MIC of 256 μg/mL for cannabidiol
  FICI: 0.2578
Acinetobacter baumannii ATCC 19606, cannabidiol with SPR741 at 1 μg/mL, calculated using MIC of 256 μg/mL for cannabidiol
  FICI: 1.016
Acinetobacter baumannii ATCC 19606, cannabidiol with SPR741 at 2 μg/mL, calculated using MIC of 256 μg/mL for cannabidiol
  FICI: 1.031
Acinetobacter baumannii ATCC 19606, cannabidiol with SPR741 at 2 μg/mL, calculated using MIC of 256 μg/mL for cannabidiol, listed as cannabidiol
  FICI: 1.016
ATCC19606, Acinetobacter baumannii ATCC 19606, FADDI-287 at 0.25 μg/mL, read-out: CBD MIC with FADDI-287
  MIC: 0.015 mg/L
ATCC19606, Acinetobacter baumannii ATCC 19606, FADDI-287 at 0.5 μg/mL, read-out: CBD MIC with FADDI-287
  MIC: 0.001 mg/L
ATCC19606, Acinetobacter baumannii ATCC 19606, FADDI-287 at 1 μg/mL, read-out: CBD MIC with FADDI-287
  MIC: 0.001 mg/L
ATCC19606, Acinetobacter baumannii ATCC 19606, FADDI-287 at 2 μg/mL, read-out: CBD MIC with FADDI-287
  MIC: 0.001 mg/L
ATCC19606, Acinetobacter baumannii ATCC 19606, FADDI-287 at 4 μg/mL, read-out: CBD MIC with FADDI-287
  MIC: 0.001 mg/L
ATCC19606, Acinetobacter baumannii ATCC 19606, MCC_8980 at 2 μg/mL, read-out: CBD MIC with MCC_8980
  MIC: 8 mg/L
ATCC19606, Acinetobacter baumannii ATCC 19606, MCC_8980 at 4 μg/mL, read-out: CBD MIC with MCC_8980
  MIC: 8 mg/L
ATCC19606, Acinetobacter baumannii ATCC 19606, MCC_8980 at 8 μg/mL, read-out: CBD MIC with MCC_8980
  MIC: 2 mg/L
ATCC19606, Acinetobacter baumannii ATCC 19606, MCC_8980 at 16 μg/mL, read-out: CBD MIC with MCC_8980
  MIC: 1 mg/L
ATCC19606, Acinetobacter baumannii ATCC 19606, Spero SPR206 at 2 μg/mL, read-out: CBD MIC with Spero SPR206
  MIC: 0.001 mg/L
ATCC19606, Acinetobacter baumannii ATCC 19606, Spero SPR206 at 4 μg/mL, read-out: CBD MIC with Spero SPR206
  MIC: 0.001 mg/L
ATCC19606, MCC_6442 at 1 μg/mL, Acinetobacter baumannii ATCC 19606, read-out: CBD MIC with MCC_6442
  MIC: 16 mg/L
ATCC19606, MCC_6442 at 2 μg/mL, Acinetobacter baumannii ATCC 19606, read-out: CBD MIC with MCC_6442
  MIC: 1 mg/L
ATCC19606, MCC_6442 at 4 μg/mL, Acinetobacter baumannii ATCC 19606, read-out: CBD MIC with MCC_6442
  MIC: 0.5 mg/L
ATCC19606, Octapeptin C4 at 2 μg/mL, read-out: CBD MIC with Octapeptin C4
  MIC: 8 mg/L
ATCC19606, Octapeptin C4 at 4 μg/mL, read-out: CBD MIC with Octapeptin C4
  MIC: 2 mg/L
ATCC19606, Spero SPR206 at 0.25 μg/mL, 1st of 3 experiments, read-out: CBD MIC with Spero SPR206
  MIC: 0.001 mg/L
ATCC19606, Spero SPR206 at 0.25 μg/mL, 3rd of 3 experiments, read-out: CBD MIC with Spero SPR206
  MIC: > 256 mg/L
ATCC19606, Spero SPR206 at 0.5 μg/mL, 1st of 3 experiments, read-out: CBD MIC with Spero SPR206
  MIC: 0.001 mg/L
ATCC19606, Spero SPR206 at 0.5 μg/mL, 3rd of 3 experiments, read-out: CBD MIC with Spero SPR206
  MIC: > 256 mg/L
ATCC19606, Spero SPR206 at 1 μg/mL, 1st of 3 experiments, read-out: CBD MIC with Spero SPR206
  MIC: 0.001 mg/L
ATCC19606, Spero SPR206 at 1 μg/mL, 3rd of 3 experiments, read-out: CBD MIC with Spero SPR206
  MIC: 1 mg/L
ATCC19606, Spero SPR206 at 2 μg/mL, 1st of 3 experiments, read-out: CBD MIC with Spero SPR206
  MIC: 0.001 mg/L
ATCC19606, Spero SPR206 at 2 μg/mL, 3rd of 3 experiments, read-out: CBD MIC with Spero SPR206
  MIC: 0.001 mg/L
ATCC19606, Spero SPR206 at 4 μg/mL, 1st of 3 experiments, read-out: CBD MIC with Spero SPR206
  MIC: 0.001 mg/L
ATCC19606, Spero SPR206 at 4 μg/mL, 3rd of 3 experiments, read-out: CBD MIC with Spero SPR206
  MIC: 0.001 mg/L
Aztreonam at 4 μg/mL
  CBD MIC with Aztreonam: 32 mg/L
Aztreonam at 8 μg/mL
  CBD MIC with Aztreonam: 32 mg/L
Aztreonam at 16 μg/mL
  CBD MIC with Aztreonam: 0.001 mg/L
CBD with Aztreonam at 0.5 μg/mL, CBD MIC taken as 256 μg/mL
  FICI: 1.016
CBD with Aztreonam at 1 μg/mL, CBD MIC taken as 256 μg/mL
  FICI: 1.031
CBD with Aztreonam at 2 μg/mL, CBD MIC taken as 256 μg/mL
  FICI: 1.0625
CBD with Aztreonam at 4 μg/mL, CBD MIC taken as 256 μg/mL
  FICI: 0.25
